Source: patent publication US20240398811A1, “PRC2 INHIBITORS FOR USE IN TREATING BLOOD DISORDERS” (ORIC Pharmaceuticals, Inc., priority 2021, published 2024)

Molecular target: purified human, His-tagged PRC2 complex (Homo sapiens (Human), UniProt O75530)
Test: Hot Spot HMT assay, inhibition of PRC2 enzymatic activity
Format: biochemical
Settings: 10 nM PRC2 complex, 1 μM 3H-SAM, core histone H3, 10-point dose-response
Procedure, shortened: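 Five-subunit PRC2 complex (EZH2, EED, SUZ12, AEBP2, RbAp48; 10 nM) preincubated 20 min at 30° C with compound (top 1.0 μM) and 0.05 mg/ml core histone H3 in Tris-HCl, 1% DMSO. Started with 1 μM [3H]SAM, 1 hr at 30° C; tritiated H3 measured by filter binding and scintillation.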

Chain of purified human, His-tagged PRC2 complex (O75530 whole entry): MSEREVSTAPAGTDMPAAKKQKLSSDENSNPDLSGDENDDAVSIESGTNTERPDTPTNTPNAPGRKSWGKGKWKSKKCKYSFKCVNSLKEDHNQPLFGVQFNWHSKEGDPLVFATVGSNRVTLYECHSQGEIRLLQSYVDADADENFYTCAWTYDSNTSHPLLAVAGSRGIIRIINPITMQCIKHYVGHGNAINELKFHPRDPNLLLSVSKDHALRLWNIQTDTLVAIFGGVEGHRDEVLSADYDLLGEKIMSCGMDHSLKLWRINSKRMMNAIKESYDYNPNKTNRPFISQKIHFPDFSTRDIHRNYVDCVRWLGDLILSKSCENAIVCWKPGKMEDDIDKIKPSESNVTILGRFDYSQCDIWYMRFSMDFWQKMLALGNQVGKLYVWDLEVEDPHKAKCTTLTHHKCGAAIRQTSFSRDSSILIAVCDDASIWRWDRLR
Chain of purified human, His-tagged PRC2 complex (Q15910 whole entry partner): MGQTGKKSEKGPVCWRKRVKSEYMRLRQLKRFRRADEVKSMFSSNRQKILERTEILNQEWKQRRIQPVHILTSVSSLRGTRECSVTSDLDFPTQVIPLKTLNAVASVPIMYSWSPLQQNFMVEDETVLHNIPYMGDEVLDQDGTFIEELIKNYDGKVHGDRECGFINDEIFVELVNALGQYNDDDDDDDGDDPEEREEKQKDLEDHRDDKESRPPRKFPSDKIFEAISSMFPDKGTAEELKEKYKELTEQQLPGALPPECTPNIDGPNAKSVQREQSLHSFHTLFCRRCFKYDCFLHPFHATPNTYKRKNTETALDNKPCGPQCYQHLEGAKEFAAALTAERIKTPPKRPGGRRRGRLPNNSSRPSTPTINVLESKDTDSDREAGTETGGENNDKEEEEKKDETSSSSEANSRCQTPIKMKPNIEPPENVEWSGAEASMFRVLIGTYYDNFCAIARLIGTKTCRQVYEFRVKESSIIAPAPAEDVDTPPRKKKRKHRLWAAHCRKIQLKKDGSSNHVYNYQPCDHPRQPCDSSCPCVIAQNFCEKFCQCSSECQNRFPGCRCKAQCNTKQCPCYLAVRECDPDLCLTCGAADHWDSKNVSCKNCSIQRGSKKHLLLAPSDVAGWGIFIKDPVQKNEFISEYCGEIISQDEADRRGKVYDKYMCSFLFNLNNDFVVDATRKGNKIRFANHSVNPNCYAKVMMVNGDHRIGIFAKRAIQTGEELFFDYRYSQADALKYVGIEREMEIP
Chain of purified human, His-tagged PRC2 complex (Q15022 whole entry partner): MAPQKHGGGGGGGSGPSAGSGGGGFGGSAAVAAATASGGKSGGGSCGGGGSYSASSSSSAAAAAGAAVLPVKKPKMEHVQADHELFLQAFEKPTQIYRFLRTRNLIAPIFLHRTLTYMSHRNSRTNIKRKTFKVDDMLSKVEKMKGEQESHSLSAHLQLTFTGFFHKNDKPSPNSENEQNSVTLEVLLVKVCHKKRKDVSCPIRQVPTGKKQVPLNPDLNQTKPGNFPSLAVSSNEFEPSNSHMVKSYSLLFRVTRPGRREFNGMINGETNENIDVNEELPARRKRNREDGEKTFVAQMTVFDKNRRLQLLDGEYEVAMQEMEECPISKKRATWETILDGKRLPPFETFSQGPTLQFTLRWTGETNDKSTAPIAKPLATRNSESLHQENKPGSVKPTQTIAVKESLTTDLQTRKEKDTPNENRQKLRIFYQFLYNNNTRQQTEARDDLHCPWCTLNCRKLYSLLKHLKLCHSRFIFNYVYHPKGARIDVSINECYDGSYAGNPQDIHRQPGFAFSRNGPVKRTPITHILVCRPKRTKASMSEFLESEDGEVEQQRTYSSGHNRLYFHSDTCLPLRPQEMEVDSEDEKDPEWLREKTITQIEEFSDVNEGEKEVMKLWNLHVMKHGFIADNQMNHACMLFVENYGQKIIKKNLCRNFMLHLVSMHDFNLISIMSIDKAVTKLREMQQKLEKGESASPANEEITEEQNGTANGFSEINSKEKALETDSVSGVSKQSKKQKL
Chain of purified human, His-tagged PRC2 complex (Q6ZN18 whole entry partner): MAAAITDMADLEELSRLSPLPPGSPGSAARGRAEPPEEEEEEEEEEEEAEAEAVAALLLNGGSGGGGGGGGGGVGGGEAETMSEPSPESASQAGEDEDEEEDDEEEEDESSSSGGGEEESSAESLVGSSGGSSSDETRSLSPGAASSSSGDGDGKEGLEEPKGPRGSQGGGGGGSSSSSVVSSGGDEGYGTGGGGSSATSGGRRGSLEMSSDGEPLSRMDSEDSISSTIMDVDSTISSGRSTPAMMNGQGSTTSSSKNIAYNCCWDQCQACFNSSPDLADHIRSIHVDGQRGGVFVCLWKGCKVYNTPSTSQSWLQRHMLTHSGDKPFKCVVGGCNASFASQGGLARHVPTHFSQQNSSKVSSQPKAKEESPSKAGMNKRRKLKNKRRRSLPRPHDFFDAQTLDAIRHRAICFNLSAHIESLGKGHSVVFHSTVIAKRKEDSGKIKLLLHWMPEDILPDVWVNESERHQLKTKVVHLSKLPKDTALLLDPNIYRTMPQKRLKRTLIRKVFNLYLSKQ
Chain of purified human, His-tagged PRC2 complex (Q09028 whole entry partner): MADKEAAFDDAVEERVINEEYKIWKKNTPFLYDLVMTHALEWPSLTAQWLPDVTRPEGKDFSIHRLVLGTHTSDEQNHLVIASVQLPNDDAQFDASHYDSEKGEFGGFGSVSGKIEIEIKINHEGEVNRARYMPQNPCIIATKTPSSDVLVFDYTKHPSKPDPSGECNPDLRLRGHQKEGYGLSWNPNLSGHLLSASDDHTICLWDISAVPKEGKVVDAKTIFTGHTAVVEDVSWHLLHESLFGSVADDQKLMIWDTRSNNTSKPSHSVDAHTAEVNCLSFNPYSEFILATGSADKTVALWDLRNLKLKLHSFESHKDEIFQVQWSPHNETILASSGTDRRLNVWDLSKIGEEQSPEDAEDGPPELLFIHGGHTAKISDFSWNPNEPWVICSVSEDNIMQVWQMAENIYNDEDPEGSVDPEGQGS

Structure (SMILES)	IC50
Cc1cncc(-c2cnc(NCc3c(F)ccc4c3CCO4)n3cc(C#N)nc23)c1 [Example 96, 5-(((5-fluoro-2,3-dihydrobenzofuran-4-yl)methyl)amino)-8-(5-methylpyridin-3-yl)imidazo[1,2-c]pyrimidine-2-carbonitrile]	< 100 nM
N#Cc1cn2c(NCc3c(F)ccc4c3CCO4)ncc(-c3cncc(F)c3)c2n1 [Example 97, 5-(((5-fluoro-2,3-dihydrobenzofuran-4-yl)methyl)amino)-8-(5-fluoropyridin-3-yl)imidazo[1,2-c]pyrimidine-2-carbonitrile]	< 100 nM
Cc1ccncc1-c1cnc(NCc2c(F)ccc3c2CCO3)n2cc(C#N)nc12 [Example 98, 5-(((5-fluoro-2,3-dihydrobenzofuran-4-yl)methyl)amino)-8-(4-methylpyridin-3-yl)imidazo[1,2-c]pyrimidine-2-carbonitrile]	< 100 nM
CC(C)n1cc(-c2cnc(NCc3c(F)ccc4c3CCO4)n3cc(C#N)nc23)cn1 [Example 99, 5-(((5-fluoro-2,3-dihydrobenzofuran-4-yl)methyl)amino)-8-(1-isopropyl-1H-pyrazol-4-yl)imidazo[1,2-c]pyrimidine-2-carbonitrile]	< 100 nM
N#Cc1cn2c(NCc3c(F)ccc4c3CCO4)ncc(-c3cccnc3)c2n1 [Example 100, 5-(((5-fluoro-2,3-dihydrobenzofuran-4-yl)methyl)amino)-8-(pyridin-3-yl)imidazo[1,2-c]pyrimidine-2-carbonitrile]	< 100 nM
N#Cc1cn2c(NCc3c(F)ccc4c3CCO4)ncc(-c3cnn(Cc4cccnc4)c3)c2n1 [Example 101, 5-(((5-fluoro-2,3-dihydrobenzofuran-4-yl)methyl)amino)-8-(1-(pyridin-3-ylmethyl)-1H-pyrazol-4-yl)imidazo[1,2-c]pyrimidine-2-carbonitrile]	100 to 500 nM
CN(C)CCn1cc(-c2cnc(NCc3c(F)ccc4c3CCO4)n3cc(C#N)nc23)cn1 [Example 102, 8-(1-(2-(dimethylamino)ethyl)-1H-pyrazol-4-yl)-5-(((5-fluoro-2,3-dihydrobenzofuran-4-yl)methyl)amino)imidazo[1,2-c]pyrimidine-2-carbonitrile]	100 to 500 nM
CN(C)CCCn1cc(-c2cnc(NCc3c(F)ccc4c3CCO4)n3cc(C#N)nc23)cn1 [Example 103, 8-(1-(3-(dimethylamino)propyl)-1H-pyrazol-4-yl)-5-(((5-fluoro-2,3-dihydrobenzofuran-4-yl)methyl)amino)imidazo[1,2-c]pyrimidine-2-carbonitrile]	100 to 500 nM
Cc1n[nH]c(C)c1-c1cnc(NCc2c(F)ccc3c2CCO3)n2cc(C#N)nc12 [Example 104, 8-(3,5-dimethyl-1H-pyrazol-4-yl)-5-(((5-fluoro-2,3-dihydrobenzofuran-4-yl)methyl)amino)imidazo[1,2-c]pyrimidine-2-carbonitrile]	> 500 nM
Cc1ncccc1-c1cnc(NCc2c(F)ccc3c2CCO3)n2cc(C#N)nc12 [Example 105, 5-(((5-fluoro-2,3-dihydrobenzofuran-4-yl)methyl)amino)-8-(2-methylpyridin-3-yl)imidazo[1,2-c]pyrimidine-2-carbonitrile]	< 100 nM
N#Cc1cn2c(NCc3c(F)ccc4c3CCO4)ncc(-c3cnn(C4COC4)c3)c2n1 [Example 106, 5-(((5-fluoro-2,3-dihydrobenzofuran-4-yl)methyl)amino)-8-(1-(oxetan-3-yl)-1H-pyrazol-4-yl)imidazo[1,2-c]pyrimidine-2-carbonitrile]	100 to 500 nM
N#Cc1cn2c(NCc3c(F)ccc4c3CCO4)ncc(-c3cnn(C4CCOC4)c3)c2n1 (stereo not shown) [Example 107, 5-(((5-fluoro-2,3-dihydrobenzofuran-4-yl)methyl)amino)-8-(1-(tetrahydrofuran-3-yl)-1H-pyrazol-4-yl)imidazo[1,2-c]pyrimidine-2-carbonitrile]	100 to 500 nM
N#Cc1cn2c(NCc3c(F)ccc4c3CCO4)ncc(-c3cnn(CC(F)(F)F)c3)c2n1 [Example 108, 5-(((5-fluoro-2,3-dihydrobenzofuran-4-yl)methyl)amino)-8-(1-(2,2,2-trifluoroethyl)-1H-pyrazol-4-yl)imidazo[1,2-c]pyrimidine-2-carbonitrile]	< 100 nM
N#Cc1cn2c(NCc3c(F)ccc4c3CCO4)ncc(-c3cnccc3Cl)c2n1 [Example 109, 8-(4-chloropyridin-3-yl)-5-(((5-fluoro-2,3-dihydrobenzofuran-4-yl)methyl)amino)imidazo[1,2-c]pyrimidine-2-carbonitrile]	< 100 nM
Cc1ncncc1-c1cnc(NCc2c(F)ccc3c2CCO3)n2cc(C#N)nc12 [Example 110, 5-(((5-fluoro-2,3-dihydrobenzofuran-4-yl)methyl)amino)-8-(4-methylpyrimidin-5-yl)imidazo[1,2-c]pyrimidine-2-carbonitrile]	< 100 nM
Cn1nc(C(F)(F)F)cc1-c1cnc(NCc2c(F)ccc3c2CCO3)n2cc(C#N)nc12 [Example 111, 5-(((5-fluoro-2,3-dihydrobenzofuran-4-yl)methyl)amino)-8-(1-methyl-3-(trifluoromethyl)-1H-pyrazol-5-yl)imidazo[1,2-c]pyrimidine-2-carbonitrile]	< 100 nM
CN(C)Cc1ccc(-c2cnc(NCc3c(F)ccc4c3CCO4)n3cc(C#N)nc23)cc1 [Example 112, 8-(4-((dimethylamino)methyl)phenyl)-5-(((5-fluoro-2,3-dihydrobenzofuran-4-yl)methyl)amino)imidazo[1,2-c]pyrimidine-2-carbonitrile]	< 100 nM
COc1cc(-c2cnc(NCc3c(F)ccc4c3CCO4)n3cc(C#N)nc23)ccn1 [Example 113, 5-(((5-fluoro-2,3-dihydrobenzofuran-4-yl)methyl)amino)-8-(2-methoxypyridin-4-yl)imidazo[1,2-c]pyrimidine-2-carbonitrile]	< 100 nM
Cn1nccc1-c1cnc(NCc2c(F)ccc3c2CCO3)n2cc(C#N)nc12 [Example 114, 5-(((5-fluoro-2,3-dihydrobenzofuran-4-yl)methyl)amino)-8-(1-methyl-1H-pyrazol-5-yl)imidazo[1,2-c]pyrimidine-2-carbonitrile]	< 100 nM
CN1CCN(C(=O)c2ccc(-c3cnc(NCc4c(F)ccc5c4CCO5)n4cc(C#N)nc34)cc2)CC1 [Example 115, 5-(((5-fluoro-2,3-dihydrobenzofuran-4-yl)methyl)amino)-8-(4-(4-methylpiperazine-1-carbonyl)phenyl)imidazo[1,2-c]pyrimidine-2-carbonitrile]	< 100 nM
N#Cc1cn2c(NCc3c(F)ccc4c3CCO4)ncc(-c3ccc(C4CC4)nc3)c2n1 [Example 116, 8-(6-cyclopropylpyridin-3-yl)-5-(((5-fluoro-2,3-dihydrobenzofuran-4-yl)methyl)amino)imidazo[1,2-c]pyrimidine-2-carbonitrile]	< 100 nM

Continued, values first:

IC50	Structure (SMILES)
100 to 500 nM	COCCn1cc(-c2cnc(NCc3c(F)ccc4c3CCO4)n3cc(C#N)nc23)cn1 [Example 117, 5-(((5-fluoro-2,3-dihydrobenzofuran-4-yl)methyl)amino)-8-(1-(2-methoxyethyl)-1H-pyrazol-4-yl)imidazo[1,2-c]pyrimidine-2-carbonitrile]
< 100 nM	N#Cc1cn2c(NCc3c(F)ccc4c3CCO4)ncc(-c3cnn(C4CCCCO4)c3)c2n1 (stereo not shown) [Example 118, 5-(((5-fluoro-2,3-dihydrobenzofuran-4-yl)methyl)amino)-8-(1-(tetrahydro-2H-pyran-2-yl)-1H-pyrazol-4-yl)imidazo[1,2-c]pyrimidine-2-carbonitrile]
100 to 500 nM	CCn1cc(-c2cnc(NCc3c(F)ccc4c3CCO4)n3cc(C#N)nc23)cn1 [Example 119, 8-(1-ethyl-1H-pyrazol-4-yl)-5-(((5-fluoro-2,3-dihydrobenzofuran-4-yl)methyl)amino)imidazo[1,2-c]pyrimidine-2-carbonitrile]
> 500 nM	N#Cc1cn2c(NCc3c(F)ccc4c3CCO4)ncc(-c3cnn(C4CCOCC4)c3)c2n1 [Example 120, 5-(((5-fluoro-2,3-dihydrobenzofuran-4-yl)methyl)amino)-8-(1-(tetrahydro-2H-pyran-4-yl)-1H-pyrazol-4-yl)imidazo[1,2-c]pyrimidine-2-carbonitrile]
< 100 nM	CC(C)(O)Cn1cc(-c2cnc(NCc3c(F)ccc4c3CCO4)n3cc(C#N)nc23)cn1 [Example 121, 5-(((5-fluoro-2,3-dihydrobenzofuran-4-yl)methyl)amino)-8-(1-(2-hydroxy-2-methylpropyl)-1H-pyrazol-4-yl)imidazo[1,2-c]pyrimidine-2-carbonitrile]
> 500 nM	Cc1cc(-c2cnc(NCc3c(F)ccc4c3CCCO4)n3cc(C#N)nc23)n(C)n1 [Example 122, 8-(1,3-dimethyl-1H-pyrazol-5-yl)-5-(((6-fluorochroman-5-yl)methyl)amino)imidazo[1,2-c]pyrimidine-2-carbonitrile]
< 100 nM	COc1cc(-c2cnc(NCc3c(F)ccc4c3CCO4)n3cc(C#N)nc23)c(F)cn1 [Example 123, 5-(((5-fluoro-2,3-dihydrobenzofuran-4-yl)methyl)amino)-8-(5-fluoro-2-methoxypyridin-4-yl)imidazo[1,2-c]pyrimidine-2-carbonitrile]
< 100 nM	CCOc1ncccc1-c1cnc(NCc2c(F)ccc3c2CCO3)n2cc(C#N)nc12 [Example 124, 8-(2-ethoxypyridin-3-yl)-5-(((5-fluoro-2,3-dihydrobenzofuran-4-yl)methyl)amino)imidazo[1,2-c]pyrimidine-2-carbonitrile]
< 100 nM	COc1cc(-c2cnc(NCc3c(F)ccc4c3CCO4)n3cc(C#N)nc23)c(OC)cn1 [Example 125, 8-(2,5-dimethoxypyridin-4-yl)-5-(((5-fluoro-2,3-dihydrobenzofuran-4-yl)methyl)amino)imidazo[1,2-c]pyrimidine-2-carbonitrile]
100 to 500 nM	N#Cc1cn2c(NCc3c(F)ccc4c3CCO4)ncc(-c3ccc(C(F)(F)F)nc3)c2n1 [Example 126, 5-(((5-fluoro-2,3-dihydrobenzofuran-4-yl)methyl)amino)-8-(6-(trifluoromethyl)pyridin-3-yl)imidazo[1,2-c]pyrimidine-2-carbonitrile]
